From paper PMC10385865, “Synthesis and Anticancer Activity of Novel Dual Inhibitors of Human Protein Kinases CK2 and PIM-1” (Pharmaceutics, 2023)
Like-named read-outs stand apart in the source and are kept apart here.

Assays:
Vero cells = assay: MTT-based viability assay, non-cancerous Vero cells; format: cell-based, Cercopithecus aethiops; conditions: Chlorocebus sabaeus, 48 h, read-out: IC50 Vero
Procedure: (§1) After incubation with the tested compounds, an MTT test was performed as described previously. Optical densities were measured at 570 nm using a BioTek microplate reader (BioTek Instruments, Inc., Winooski, VT, USA). All measurements were carried out in a minimum of three biological replicates.
(§2) . The IC50 values describing the half-maximal effective concentration of each tested compound were calculated and are summarized in Table 2. […].

CCRF-CEM cells [1] = assay: Cell cycle progression by flow cytometry (PI), CCRF-CEM; format: cell-based, human; conditions: 48 h
Procedure: MCF-7, CCRF-CEM, and K-562 cells were cultured in 6-well plates and treated with the tested compounds for 48 h. After exposure to the compounds, the cells were collected and washed with cold PBS and fixed at −20 °C in 70% ethanol for at least 24 h. Subsequently, cells were washed in PBS and stained with 50 μg/mL PI (propidium iodide) and 100 μg/mL RNase solution in PBS supplemented with 0.1% v/v Triton X-100 for 30 min in the dark at RT. Cellular DNA content was determined by flow cytometry employing a BD FACSCanto II flow cytometer (BD Biosciences, San Jose, CA, USA). The obtained DNA histograms were analyzed using MacCycle software (Phoenix Flow Systems, San Diego, CA, USA) for evaluation of the distribution of the cells in different phases of the cell cycle.
Since CK2 controls cell cycle progression and, consequently, its inhibition can affect the distribution of cells in the individual phases of the cell cycle, we tested the cell cycle progression in CCRF-CEM, K-562, and MCF-7 cells after treatment with 4 and rac-6. Representative plots DNA histograms with the calculations of cell percentages in each phase of the cell cycle are depicted in Figure 7. […] Accumulation of cells in sub-G1 indicates DNA degradation, as often seen in apoptotic cells, confirming the results obtained with annexin V and PI staining.

[2] = system: CCRF-CEM (acute lymphoblastic leukemia); assay: MTT-based viability assay, CCRF-CEM; format: cell-based, human; conditions: for IC50: Homo sapiens, CCRF-CEM, 48 h, read-out: IC50 CCRF-CEM
Procedure: as §1, §2

K-562 cells [3] = assay: Annexin V/propidium iodide apoptosis, flow cytometry, K-562; conditions: for viability at 5 µM / viability at 10 µM: Homo sapiens, K562, 48 h, read-out: Viable; for Early apoptosis / Late apoptosis / Necrosis: mean±SD
Procedure: (§3) MCF-7 cells were seeded in 6-well plates at 1.2 × 10^5 cells/well, whereas CCRF-CEM and K-562 cells were seeded in 24-well plates at a density of 2 × 10^5/mL. Cells were treated with the tested compounds used in 5 µM and 10 µM concentrations. Then, the plates were incubated for 48 h. After exposure to the examined compounds, the cells were collected and centrifugated at 200× g at 4 °C for 5 min, washed twice in cold phosphate-buffered saline (PBS), and subsequently suspended in binding buffer at 1 × 10^6 cells/mL. Subsequently, 100-μL aliquots of the cell suspension were labeled according to the instructions of the respective manufacturer’s kit. Briefly, annexin V-fluorescein isothiocyanate and propidium iodide (BD Biosciences, Pharmingen, San Diego, CA, USA) were added to the cell suspension, and the mixture was vortexed, then incubated for 15 min at RT in the dark. A cold binding buffer (400 μL) was then added, and the cells were vortexed again and kept on ice. Flow cytometric measurements were performed within 1 h after labeling. Viable, necrotic, early, and late apoptotic cells were detected by flow cytometry using a BD FACSCanto II flow cytometer and analyzed using BD FACSDiva operating software (BD Biosciences, San Jose, CA, USA).

CCRF-CEM cells [4] = assay: Annexin V/propidium iodide apoptosis, flow cytometry, CCRF-CEM; conditions: 48 h; for Early apoptosis / Late apoptosis / Necrosis: mean±SD; for viability at 5 µM / viability at 10 µM: Homo sapiens, read-out: Viable
Procedure: as §3

K-562 cells [5] = assay: Acridine orange staining, microscopy and fluorescence intensity assay (autophagy); format: cell-based, human; conditions: for induction of autophagy (in words): BCR-ABL-positive CML cell line K-562, 48 h; for red fluorescence (red-stained lysosomes), AO, % of the control: K-562, 48 h, 4 at both concentrations, rac-6 at 15 µM, not statistically significant
Procedure: K-562 cells were seeded in 6-well plates at 2.5 × 10^5/mL and subjected to the tested compounds. After 48 h of incubation, cells were centrifugated at 200× g at 4 °C for 5 min, subsequently suspended in PBS containing 2 µg/mL AO and Hoechst 33342, and incubated at 37 °C for 20 min in the dark. Subsequently, cells were centrifugated at 200× g at 4 °C for 5 min. Then, 5 µL of the sample was mounted on a glass slide and covered with a coverslip and examined under a Nikon ECLIPSE Y-TV55 fluorescent microscope.
K-562 cells were seeded in 6-well plates at 2.5 × 10^5/mL and subjected to the tested compounds. After 48 h of incubation, cells were centrifugated at 200× g at 4 °C for 5 min, subsequently suspended in PBS containing 2 µg/mL AO and Hoechst 33342, and incubated at 37 °C for 20 min in the dark. Subsequently, cells were centrifugated at 200× g at 4 °C for 5 min, and 150 µL of the sample was measured on dark plates (Sarstedt). The fluorescence intensity of AO at Ex. 502 nm/Em. 520–524 nm (aggregated or DNA complexed form), Ex. 457 nm/Em. 630–644 nm (aggregated or RNA complexed form), Ex. 540 nm/Em. 640–660 nm (red-stained lysosomes), and Ex. 488 nm/Em. 540–550 nm (yellowish stained lysosomes) and that of Hoechst (nuclei, Ex. 361 nm/Em. 497 nm) in K-562 cells was measured with a Synergy H4 Hybrid Multi-Mode Microplate Reader (BioTek Instruments, Inc., Winooski, VT, USA). The data were normalized to the intensity of Hoechst (nuclei, Ex. 361 nm/Em. 497 nm) in comparison to control cells serving as the reference point, showing 100%.
In order to conclude the mechanism of death of K-562 cells treated with the tested active agents, microscopic observations and a fluorescence intensity assay were performed after staining the cells with an acridine orange (AO). The employed dye is a cell-permeable fluorophore that can be protonated and trapped in acidic vesicular organelles (AVOs). Its metachromatic shift to red fluorescence is concentration-dependent, and therefore, acridine orange fluoresces red in AVOs, such as autolysosomes, can be detected quantitatively. In addition, OA has the ability to intercalate between the nitrogenous bases of the nucleic acids present in cells and their labeling. DNA or RNA is digested during the autophagy process, and the resulting damage makes it easier to bind with OA molecules.
After 48 h of treatment with 4 and rac-6, K-562 cells, were subjected to staining with Hoechst (nuclei staining) and AO, followed by fluorescent microscopy and a fluorescence intensity measurement. […] Since the obtained microscopic data were inconclusive, we additionally measured fluorescence intensity of AO at four different wavelengths, i.e., Ex. 502 nm/Em. 520–524 nm (aggregated or DNA complexed form), Ex. 457 nm/Em. 630–644 nm (aggregated or RNA complexed form), Ex. 540 nm/Em. 640–660 nm (red-stained lysosomes), and Ex. 488 nm/Em. 540–550 nm (yellowish stained lysosomes) (Figure 6b).

| SMILES | cell cycle arrest (phase, in words) (CCRF-CEM cells [1]) | viability at 5 µM (K-562 cells [3]) | viability at 10 µM (K-562 cells [3]) | Early apoptosis (K-562 cells [3]; K-562, 5 µM, 48 h) | Late apoptosis (K-562 cells [3]; K-562, 5 µM, 48 h) | Necrosis (K-562 cells [3]; K-562, 5 µM, 48 h) | percentage of total apoptotic K-562 cells (K-562 cells [3]; K-562, 10 µM, 48 h) | Early apoptosis (K-562 cells [3]; K-562, 10 µM, 48 h) | Late apoptosis (K-562 cells [3]; K-562, 10 µM, 48 h) | Necrosis (K-562 cells [3]; K-562, 10 µM, 48 h) | Early apoptosis (CCRF-CEM cells [4]; 5 µM) | Late apoptosis (CCRF-CEM cells [4]; 5 µM) | Necrosis (CCRF-CEM cells [4]; 5 µM) | Early apoptosis (CCRF-CEM cells [4]; 10 µM) | Late apoptosis (CCRF-CEM cells [4]; 10 µM) | Necrosis (CCRF-CEM cells [4]; 10 µM) | viability at 5 µM (CCRF-CEM cells [4]) | viability at 10 µM (CCRF-CEM cells [4]) | induction of autophagy (in words) (K-562 cells [5]) | red fluorescence (red-stained lysosomes), AO, % of the control (K-562 cells [5]) | further results |
| --- | --- | --- | --- | --- | --- | --- | --- | --- | --- | --- | --- | --- | --- | --- | --- | --- | --- | --- | --- | --- | --- |
| OC(CNc1nc2c(Br)c(Br)c(Br)c(Br)c2[nH]1)C(F)(F)F (racemic) [rac-6, 1,1,1-Trifluoro-3-[(4,5,6,7-tetrabromo-1H-benzimidazol-2-yl)amino]propan-2-ol] | G1-phase arrest | 87.97 ± 0.81% | 82.8 ± 3.68% | 5.13±0.40% | 5.97±1.02% | 0.63±0.06% | 15.5% | 4.67±1.21% | 10.80±4.06% | 1.70±0.60% | 2.75±0.07% | 18.85±3.61% | 2.45±0.07% | 2.30±0.42% | 44.05±4.03% | 5.00±1.41% | 76 ± 3.75% | 48.6 ± 2.26% | able to induce autophagy | up to 148 % of the control | IC50 (Vero cells; MTT): 20.4 ± 0.41 µM; leukemia cells accumulated in G1 phase (maximum) (CCRF-CEM cells [1]; 10 µM): 49%; IC50 ([2]; MTT): 11.8 ± 0.4 µM; SI (selectivity index) CCRF-CEM ([2]; IC50 Vero/IC50 cancer cells): 1.72; induction of apoptosis (in words) (K-562 cells [3]; K-562, 5 and 10 µM, 48 h): no significant apoptosis observed; cells in early and late apoptosis (CCRF-CEM cells [4]; 10 µM): 47%; red fluorescence (in words) (K-562 cells [5]; K-562, 10 µM, 48 h): reduced; yellowish-stained lysosomes, AO fluorescence, % of the control (K-562 cells [5]; K-562, 15 µM, 48 h, Ex. 488 nm/Em. 540–550 nm, normalized to Hoechst): 324 % of the control |
| CN(C)c1nc2c(Br)c(Br)c(Br)c(Br)c2[nH]1 [Compound 4, 4,5,6,7-Tetrabromo-N,N-dimethyl-1H-benzimidazol-2-amine, reference compound] | S-phase arrest | 92.3 ± 0.99% | 90.6 ± 4.27% | 1.95±0.61% | 4.70±1.21% | 1.05±0.69% | 8.7% | 1.33±0.67% | 7.43±3.52% | 0.67±0.31% | 1.65±0.78% | 13.55±0.35% | 1.45±0.07% | 1.55±0.07% | 16.75±0.21% | 1.35±0.49% | 83.3 ± 0.57% | 80.35 ± 0.78% | able to induce autophagy | up to 148 % of the control | IC50 (Vero cells): 18.7 ± 0.33 µM; IC50 [2]: 18.9 ± 0.88 µM |
